Test results as given in patent US5686109A, “Antipyretic analgesic composition” (priority 1993, dated 1997).

Test system: SD strain rats (pain threshold of right hind leg)
Assay: Pain Removing Effect (Randall-Selitto method, heat edema)
Assay type: in vivo, rat
Details: 2 h after administration, mean ± standard error, n=10 rats
Description: Test substances and doses:
IPA and IBP were respectively suspended in a 0.5% aqueous solution of methylcellulose (MC) to a concentration of 8 mg/ml. The test suspensions for groups 2 and 3 were prepared by mixing the IPA suspension and IBP suspension together in a proportion of 3:1 (group 2) or 1:3 (group 3). The doses used are shown below. Each suspension was orally administered at a volumetric dose of 5 ml/kg.
Group 1: IPA 40 mg/kg+IBP 0 mg/kg
Group 2: IPA 30 mg/kg+IBP 10 mg/kg
Group 3: IPA 10 mg/kg+IBP 30 mg/kg
Group 4: IPA 0 mg/kg +IBP 40 mg/kg
Six-week-old male SD strain rats (Nippon SLC) fasted 24 hours before experiment were used in groups of 10. They were grouped such that the four groups were uniform in mean body weight.
First, the pain threshold value before thermal stimulation was measured (0 hour value). Then, heat edema was caused on the right hind leg of the rat by immersing said leg in hot water (54° C.) just to the fibular ankle (boundary showing sudden change in hair density) for 12 seconds. Two hours later, the pain threshold of the right hind leg was measured (2 hours value), immediately followed by test substance administration. After the lapse of two further hours, the pain threshold of the right hind leg was measured (4 hours value).
The percent pain removal was calculated by the following formula: [formula]

SMILES | Pain removal (%) (IPA 0 mg/kg + IBP 40 mg/kg PO) | Pain removal (%) (IPA 40 mg/kg PO + IBP 0 mg/kg)
CC(C)Cc1ccc(C(C)C(=O)O)cc1 (centres unmarked) [IBP, 2-(4-isobutylphenyl)propionic acid] | 32.3 ± 7.5 | 
Cc1c(C(C)C)c(=O)n(-c2ccccc2)n1C [IPA, 4-isopropyl-2,3-dimethyl-1-phenyl-3-pyrazolin-5-one] |  | 25.8 ± 15.9
